The values that follow come from patent publication US20230255930A1, “METHOD OF INCREASING THE POPULATION OF COPROCOCCUS SPP. IN THE GUT MICROBIOME” (priority 2020, published 2023).

In test [1] the test system is Coprococcus. In words: In vitro intestinal batch fermentation with human fecal suspension; 16S rRNA Illumina sequencing. The test is classed as cell-based. Conditions: fermentation supernatant at 24 h, versus control. As for the experimental part: At the start of this intestinal batch fermentation incubation, all test ingredients were added from stock solutions to the modified nutritional medium, containing (g/l): 2.5 K2HPO4, 10.9 KH2PO4, 2 NaHCO3, 2 yeast extract, 2 peptone, 1 mucin, 0.5 cysteine, 2 Tween 80, 2 glucose, 2 starch, 2 cellobiose, 0.1 NaCl, 0.01 MgSO4.7H2O, 0.01 CaCl2.6H2O, 0.05 hemin, 0.5 bile salts.
The following compounds were added from stock solutions prepared in water: • Beta-carotene, • Vitamin B3, • Vitamin B5, • Vitamin B7, • Fructooligosaccharides Fructooligosaccharides are included as a positive control.
As a source of the microbial community, freshly prepared fecal suspension from a human donor was added to the reactors. […] All tests, except the blanks, were performed in single repetition. Incubation conditions were 48 h at 37° C., under shaking (90 rpm) and anaerobic conditions.
Microbial composition: Illumina sequencing was performed at the start and after 24 h of incubation. The technique targets the16S rRNA gene that consists of variable and conserved regions, spread over the gene. Due to their key role in protein expression, the conserved regions are characterized by very low evolutionary rates.
The methodology applied involves primers that span 2 hypervariable regions (V3-V4) of the 16S rRNA gene. Using a pair-end sequencing approach, sequencing of 2×250 bp results in 424 bp amplicons. Such fragments are taxonomically more informative as compared to smaller fragments. In brief, mothur (v. 1.42.0) was used to assemble reads into contigs, perform alignment-based quality filtering (alignment to the mothur-reconstructed SILVA SEED alignment, v. 123), remove chimeras, assign taxonomy using a naïve Bayesian classifier and SILVA NR v132 and cluster contigs into OTUs. All sequences classified as Eukaryota, Archaea, Chloroplasts and Mitochondria were removed, as well as sequences that could not be classified. For each OTU, representative sequences were selected as the most abundant sequence within that OTU.

The test system of test [2] is Coprococcus. Briefly: Clinical study of colon-targeted vitamins; fecal relative abundance of Coprococcus by shotgun metagenomics. The test is classed as in vivo. The settings on record: human feces, colon-targeted delivery for four weeks, compared to baseline.
Source text: Twelve participants were allocated to each of the six vitamin groups, and 24 participants allocated to the placebo group. […] To be considered eligible for enrolment into the study, participants have to be able to give written informed consent; be aged between 20 and 50 years of age; have a BMI of between 18.5 - 30 Kg/m2; have a stable body weight (< 5% change) over the past 3-months; be in generally good health, as determined by the investigator; have not consumed dietary supplements, prebiotic, probiotic, dietary or fiber-rich supplements within 4 weeks prior to baseline visit and be willing to avoid these supplements until the end of the study; be willing to avoid liver consumption for the duration for the study, be willing to maintain their current level of physical activity for the duration of the study; and be willing to consume the IP daily for the duration of the study. Any participants who have a typical fiber intake >30 g/day; were pregnant or planning to become pregnant, have consumed disallowed medications; had made major dietary changes over the past three months or had planned major lifestyle changes; had taken part in a study within the previous 60 days; or had any ongoing or previous illness that the investigator deemed would impact on the objectives of the study were excluded. […] Each subject provided written informed consent before inclusion in the study.
At the final visit (Visit 3) participants retuned a fecal samples collected in the previous 48 hours. […] Participants returned their IP and compliance was assessed. […]
Another test has as its system Coprococcus comes. In words: Clinical study of colon-targeted vitamins; fecal relative abundance of Coprococcus comes by shotgun metagenomics. Conditions: human feces, colon-targeted delivery for four weeks. The test is classed as in vivo. From the text:
Twelve participants were allocated to each of the six vitamin groups, and 24 participants allocated to the placebo group. All 96 participants completed the intervention. To be considered eligible for enrolment into the study, participants have to be able to give written informed consent; be aged between 20 and 50 years of age; have a BMI of between 18.5 - 30 Kg/m2; have a stable body weight (< 5% change) over the past 3-months; be in generally good health, as determined by the investigator; have not consumed dietary supplements, prebiotic, probiotic, dietary or fiber-rich supplements within 4 weeks prior to baseline visit and be willing to avoid these supplements until the end of the study; be willing to avoid liver consumption for the duration for the study, be willing to maintain their current level of physical activity for the duration of the study; and be willing to consume the IP daily for the duration of the study. […]
The trial was a randomized, double-blind, placebo-controlled, parallel study in which subjects received either the vitamin supplement or placebo over four weeks. […] Before the randomization visit, participants food frequency questionnaires were analyzed to ensure their typical fiber intake is <30 g fiber/day. […]
At the baseline visit (Visit 2), participants retuned a fecal samples collected in the previous 48 hours and eligibility was assessed. […]

For the compound `CC1=C(/C=C/C(C)=C/C=C/C(C)=C/C=C/C=C(C)/C=C/C=C(C)/C=C/C2=C(C)CCCC2(C)C)C(C)(C)CCC1` [beta-carotene, β-carotene], the Coprococcus relative abundance entry with Coprococcus [1] (dose 1x) and with Coprococcus [1] (dose 5x) was “increased” each time.

In the case of `NC(=O)c1cccnc1` [vitamin B3, Niacinamide], in the test with Coprococcus [1] (doses 0.2x, 1x, 5x tested), the Coprococcus relative abundance result is listed as “no distinct increase”.

On to `CC(C)(CO)[C@@H](O)C(=O)NCCC(=O)O` [vitamin B5, Pantothenic acid], for which the Coprococcus relative abundance entry in the test with Coprococcus [1] (dose 0.2x) and in the test on Coprococcus [1] (dose 5x) was “increased” throughout.

For the compound `O=C(O)CCCC[C@@H]1SC[C@@H]2NC(=O)N[C@@H]21` [vitamin B7, Biotin], in the test with Coprococcus [1] (doses 0.2x, 1x, 5x tested), the Coprococcus relative abundance result was “no distinct increase”.

As for `O=C1O[C@H]([C@@H](O)CO)C(O)=C1O` [vitamin C, ascorbic acid], the “relative abundance of Coprococcus” value in the test with Coprococcus [2] is listed as “not”.

Regarding `C=C1CC[C@H](O)C/C1=C/C=C1\CCC[C@]2(C)[C@@H]([C@H](C)CCCC(C)C)CC[C@@H]12` [vitamin D3, cholecalciferol], in the test with Coprococcus [2], the “relative abundance of Coprococcus” value is recorded as “trends for an increase”. For the same compound, the “Coprococcus comes relative abundance” value with Coprococcus comes (compared to baseline (p = 0.04)) and in the test with Coprococcus comes (compared to placebo group (p = 0.028)) was “significant increase” throughout.

Turning to vitamin A, the “relative abundance of Coprococcus” value in the test on Coprococcus [2] is “trends for an increase”.
